Experimental data from ChEMBL document CHEMBL5241069, “A key review on oxadiazole analogs as potential methicillin-resistant Staphylococcus aureus (MRSA) activity: Structure-activity relationship studies” (Eur J Med Chem, 2021).
Converted amounts (≈) assume the structure as drawn.

Columns and labels:
[1] = tested on: Staphylococcus aureus; assay: Antibacterial activity against methicillin resistant Staphylococcus aureus assessed as inhibition zone by CLSI protocol based agar disc diffusion method; type: functional
[2] = tested on: Staphylococcus aureus; assay: microbe, parasite or virus in culture; settings: 032
Description: Antibacterial activity against methicillin resistant Staphylococcus aureus 032 assessed as inhibition of bacterial growth by CLSI protocol based serial dilution method

[3] = tested on: Staphylococcus aureus; assay: Antibacterial activity methicillin resistant Staphylococcus aureus 2658 RCMB assessed as inhibition of bacterial growth by broth microdilution method; type: functional
[4] = tested on: Staphylococcus aureus; assay: Antimicrobial activity against methicillin resistant Staphylococcus aureus ATCC 43300 assessed as inhibition of bacterial growth incubated for 18 to 24 hrs by broth microdilution method; type: functional; settings: time 18-24 hrs
[5] = tested on: Staphylococcus aureus; assay: Antimicrobial activity against methicillin resistant Staphylococcus aureus 2658 RCMB assessed as inhibition of bacterial growth incubated for 20 hrs by CLSI protocol based broth microdilution method; type: functional
[6] = tested on: Staphylococcus aureus; assay: Antibiofilm activity against methicillin resistant Staphylococcus aureus ATCC 43866 assessed as inhibition of biofilm formation incubated for 18 to 24 hrs by tissue culture plate method; type: functional; settings: time 18-24 hrs
[7] = tested on: Staphylococcus aureus; assay: Antibacterial activity against methicillin resistant Staphylococcus aureus 42 assessed as inhibition of bacterial growth; type: functional
[8] = tested on: Staphylococcus aureus; assay: Antibacterial activity against methicillin resistant Staphylococcus aureus 128 assessed as inhibition of bacterial growth; type: functional
[9] = tested on: Staphylococcus aureus; assay: Antibacterial activity against methicillin resistant Staphylococcus aureus 181 assessed as inhibition of bacterial growth; type: functional
[10] = tested on: Staphylococcus aureus; assay: Antibacterial activity against methicillin resistant Staphylococcus aureus 747 assessed as inhibition of bacterial growth; type: functional
[11] = tested on: Staphylococcus aureus; assay: Antimicrobial activity against methicillin resistant Staphylococcus aureus 1 assessed as inhibition of bacterial growth incubated for 16 to 20 hrs by CLSI protocol based Muller-Hinton broth method; type: functional; settings: time 16-20 hrs
[12] = tested on: Staphylococcus aureus; assay: Antimicrobial activity against methicillin resistant Staphylococcus aureus 2 assessed as inhibition of bacterial growth incubated for 16 to 20 hrs by CLSI protocol based Muller-Hinton broth method; type: functional; settings: time 16-20 hrs
[13] = tested on: Staphylococcus aureus; assay: Antimicrobial activity against methicillin resistant Staphylococcus aureus 3 assessed as inhibition of bacterial growth incubated for 16 to 20 hrs by CLSI protocol based Muller-Hinton broth method; type: functional; settings: time 16-20 hrs
[14] = tested on: Staphylococcus aureus; assay: Antibacterial activity against methicillin resistant Staphylococcus aureus ATCC 33592 incubated for 24 hrs by Mueller-Hinton broth based assay; type: functional
[15] = tested on: Staphylococcus aureus; assay: Antibacterial activity against methicillin resistant Staphylococcus aureus assessed as inhibition zone by disc diffusion method; type: functional
[16] = tested on: Staphylococcus aureus; assay: Antibacterial activity against methicillin resistant Staphylococcus aureus assessed as inhibition of bacterial growth by broth dilution technique; type: functional
[17] = tested on: Staphylococcus aureus; assay: Antibacterial activity against methicillin resistant Staphylococcus aureus ATCC 43300 assessed as inhibition of bacterial growth incubated for 24 to 48 hrs by spectrophotometric analysis; type: functional; settings: time 24-48 hrs

## O=P(Oc1ccccc1)(Oc1ccccc1)C(Nc1nnc(-c2cccc(Br)n2)o1)c1ccc(F)c(Cl)c1 (stereo unspecified)
[1]
  inhibition zone (IZ): 17 mm

## CC[C@H]1OC(=O)[C@H](C)[C@@H](O[C@H]2C[C@@](C)(OC)[C@@H](O)[C@H](C)O2)[C@H](C)[C@@H](O[C@@H]2O[C@H](C)C[C@H](N(C)C)[C@H]2O)[C@](C)(O)C[C@@H](C)C(=O)[C@H](C)[C@@H](O)[C@]1(C)O [ERYTHROMYCIN]
[2]
  MIC: > 32 µg/mL

## Cc1nc(-c2ccc(C(C)(C)C)cc2)sc1-c1nnc(NC(=N)c2ccccn2)o1
[3]
  MIC: > 50 µg/mL

## C=C(C)C(=O)OCC[N+](CC)(CC)Cc1nnc(CCCCc2nnc(C[N+](CC)(CC)CCOC(=O)C(=C)C)o2)o1.[Cl-].[Cl-]
[4]
  MIC: 0.98 µg/mL

## CN[C@H](CC(C)C)C(=O)N[C@H]1C(=O)N[C@@H](CC(N)=O)C(=O)N[C@H]2C(=O)N[C@H]3C(=O)N[C@H](C(=O)N[C@H](C(=O)O)c4cc(O)cc(O)c4-c4cc3ccc4O)[C@H](O)c3ccc(c(Cl)c3)Oc3cc2cc(c3O[C@@H]2O[C@H](CO)[C@@H](O)[C@H](O)[C@H]2O[C@H]2C[C@](C)(N)[C@H](O)[C@H](C)O2)Oc2ccc(cc2Cl)[C@H]1O [VANCOMYCIN]
[5]
  MIC: 1.95 µg/mL (≈ 1.35 µM)
[6]
  MIC: 6.25 µg/mL (≈ 4.31 µM)
[7]
  MIC: 13.1 µg/mL (≈ 9.04 µM)
[8]
  MIC: 20.7 µg/mL (≈ 14.3 µM)
[9]
  MIC: 20.3 µg/mL (≈ 14 µM)
[10]
  MIC: 21.6 µg/mL (≈ 14.9 µM)

## Cc1ccc2occ(/C=C(/c3ccc([N+](=O)[O-])cc3)c3noc(C)n3)c(=O)c2c1
[2]
  MIC: > 32 µg/mL

## CCn1cc(C(=O)O)c(=O)c2cc(F)c(N3CCN(Cc4nnc(-c5ccccc5C)o4)CC3)cc21
[11]
  MIC: 1 µg/mL (≈ 2.03 µM)
[12]
  MIC: 0.5 µg/mL (≈ 1.02 µM)
[13]
  MIC: 2 µg/mL (≈ 4.07 µM)

## Cc1nc(-c2ccc3ccccc3c2)sc1-c1nnc(N2CC(O)C2)o1
[5]
  MIC: 3.9 µg/mL (≈ 10.7 µM)

## C[C@@H]1C[C@H](C)CN(S(=O)(=O)c2ccc(C(=O)Nc3nnc(-c4ccc(C(F)(F)F)cc4)o3)cc2)C1
[14]
  MIC: 0.25 µg/mL (≈ 0.492 µM)

## C=C(C)C(=O)OCC[N+](C)(C)Cc1nnc(CCCCc2nnc(C[N+](C)(C)CCOC(=O)C(=C)C)o2)o1.[Cl-].[Cl-]
[4]
  MIC: 0.98 µg/mL

## Cc1nc(/C(=C\c2coc3ccc(Br)cc3c2=O)c2ccc([N+](=O)[O-])cc2)no1
[2]
  MIC: > 32 µg/mL

## CCCC(O)C/C=C/CCCCCCc1nnc(-c2ccccc2Cl)o1 (stereo unspecified)
[15]
  inhibition zone (IZ): 19.5 mm
[16]
  MIC: 12.5 µg/mL (≈ 33.2 µM)

## CCn1cc(C(=O)O)c(=O)c2cc(F)c(N3CCN(Cc4nnc(-c5ccc(OC)cc5)o4)CC3)cc21
[11]
  MIC: 1 µg/mL (≈ 1.97 µM)
[12]
  MIC: 0.5 µg/mL (≈ 0.985 µM)
[13]
  MIC: 1 µg/mL (≈ 1.97 µM)

## O=C(/C=C/c1ccc([N+](=O)[O-])cc1)N1N=C(c2ccncc2)OC1c1cn(-c2ccccc2)nc1-c1ccc(F)cc1 (stereo unspecified)
[17]
  MIC: 12.5 µg/mL (≈ 22.3 µM)

## CCCC(O)C/C=C/CCCCCCc1nnc(-c2ccco2)o1 (stereo unspecified)
[15]
  inhibition zone (IZ): 18.3 mm
[16]
  MIC: 12.5 µg/mL (≈ 37.6 µM)

## O=P(Oc1ccccc1)(Oc1ccccc1)C(Nc1nnc(-c2cccc(Br)n2)o1)c1cccc(F)c1 (stereo unspecified)
[1]
  inhibition zone (IZ): 17 mm

## CCCCCCCC/C=C/CCCCCCc1nnc(-c2ccco2)o1
[15]
  inhibition zone (IZ): 20.8 mm
[16]
  MIC: 12.5 µg/mL (≈ 34.9 µM)

## Cc1cc(C)c2occ(/C=C(/c3ccc([N+](=O)[O-])cc3)c3noc(C)n3)c(=O)c2c1
[2]
  MIC: > 32 µg/mL

## Cc1nc(/C(=C\c2coc3c(Cl)cc(Cl)cc3c2=O)c2ccc([N+](=O)[O-])cc2)no1
[2]
  MIC: 32 µg/mL (≈ 72 µM)

## CCn1cc(C(=O)O)c(=O)c2cc(F)c(N3CCN(Cc4nnc(-c5ccc(F)cc5Cl)o4)CC3)cc21
[11]
  MIC: 1 µg/mL (≈ 1.89 µM)
[12]
  MIC: 1 µg/mL (≈ 1.89 µM)
[13]
  MIC: 1 µg/mL (≈ 1.89 µM)

## CCCCC/C=C/CCC(O)CCCCCCc1nnc(-c2ccco2)o1 (stereo unspecified)
[15]
  inhibition zone (IZ): 13.2 mm
[16]
  MIC: 12.5 µg/mL (≈ 33.4 µM)

## C=CCCCCCCCc1nnc(-c2ccco2)o1
[15]
  inhibition zone (IZ): 11.1 mm
[16]
  MIC: 12.5 µg/mL (≈ 48 µM)

## CC1(C)S[C@@H]2[C@H](NC(=O)[C@H](N)c3ccccc3)C(=O)N2[C@H]1C(=O)O [AMPICILLIN]
[2]
  MIC: > 32 µg/mL

## Cc1nc(-c2ccc3ccccc3c2)sc1-c1nnc(NN)o1
[5]
  MIC: 3.9 µg/mL (≈ 12.1 µM)

## CCn1cc(C(=O)O)c(=O)c2cc(F)c(N3CCNCC3)cc21 [NORFLOXACIN]
[11]
  MIC: 1 µg/mL (≈ 3.13 µM)
[12]
  MIC: 2 µg/mL (≈ 6.26 µM)
[13]
  MIC: 1 µg/mL (≈ 3.13 µM)

## CCCCCCCCCCCCCCc1nnc(-c2ccccc2Cl)o1
[15]
  inhibition zone (IZ): 12.1 mm
[16]
  MIC: 12.5 µg/mL (≈ 33.2 µM)

## Cc1nc(/C(=C\c2coc3ccc(F)cc3c2=O)c2ccc([N+](=O)[O-])cc2)no1
[2]
  MIC: > 32 µg/mL
